Data: PubChem BioAssay AID328 (DTP/NCI, 2004)
“And” between values parts separate entries of the source, which are not always exact repeats. Identical values can stand only once. Inconclusive results and toxic doses are left out. How the source made its calls: active means survival T/C of 150% or more; inactive means T/C below 125% in these data.

System: BDF1 mice, P388 leukemia ip, median survival T/C
Test: NCI In Vivo Anticancer Drug Screen. Data for tumor model P388 Leukemia (intraperitoneal) in B6D2F1 (BDF1) mice
Settings: endpoint: median survival time, higher = longer survival
How it was run: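 Reported as T/C, where T is the survival measurement in dosed animals and C the same measurement in vehicle controls.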

[1] = dose: 50.0 mg/kg/injection, schedule: Q01DX009 (ip), vehicle: saline
[2] = dose: 100.0 mg/kg/injection, schedule: Q01DX009 (ip), vehicle: saline
[3] = dose: 200.0 mg/kg/injection, schedule: Q01DX009 (ip), vehicle: saline
[4] = dose: 100.0 mg/kg/injection, schedule: Q04DX003 (ip), vehicle: saline with Tween-80
[5] = dose: 200.0 mg/kg/injection, schedule: Q04DX003 (ip), vehicle: saline with Tween-80
[6] = dose: 400.0 mg/kg/injection, schedule: Q04DX003 (ip), vehicle: saline with Tween-80
[7] = dose: 25.0 mg/kg/injection, schedule: Q04DX003 (ip), vehicle: saline with Tween-80
[8] = dose: 50.0 mg/kg/injection, schedule: Q04DX003 (ip), vehicle: saline with Tween-80
[9] = dose: 100.0 mg/kg/injection, schedule: Q01DX001 (ip), vehicle: saline with Tween-80
[10] = dose: 200.0 mg/kg/injection, schedule: Q01DX001 (ip), vehicle: saline with Tween-80
[11] = dose: 25.0 mg/kg/injection, schedule: Q01DX009 (ip), vehicle: Klucel (hydroxypropylcellulose) (HPC)
[12] = dose: 50.0 mg/kg/injection, schedule: Q01DX009 (ip), vehicle: Klucel (hydroxypropylcellulose) (HPC)
[13] = dose: 100.0 mg/kg/injection, schedule: Q01DX001 (ip), vehicle: saline sonified
[14] = dose: 200.0 mg/kg/injection, schedule: Q01DX001 (ip), vehicle: saline sonified
[15] = dose: 400.0 mg/kg/injection, schedule: Q01DX001 (ip), vehicle: saline sonified
[16] = dose: 100.0 mg/kg/injection, schedule: Q01DX009 (ip), vehicle: Klucel (hydroxypropylcellulose) (HPC)
[17] = dose: 100.0 mg/kg/injection, schedule: Q04DX003 (ip), vehicle: Klucel (hydroxypropylcellulose) (HPC)
[18] = dose: 200.0 mg/kg/injection, schedule: Q01DX009 (ip), vehicle: Klucel (hydroxypropylcellulose) (HPC)
[19] = dose: 200.0 mg/kg/injection, schedule: Q04DX003 (ip), vehicle: Klucel (hydroxypropylcellulose) (HPC)
[20] = dose: 50.0 mg/kg/injection, schedule: Q01DX009 (ip), vehicle: saline with Tween-80
[21] = dose: 100.0 mg/kg/injection, schedule: Q01DX009 (ip), vehicle: saline with Tween-80
[22] = dose: 200.0 mg/kg/injection, schedule: Q01DX009 (ip), vehicle: saline with Tween-80
[23] = dose: 400.0 mg/kg/injection, schedule: Q01DX009 (ip), vehicle: saline with Tween-80
[24] = dose: 400.0 mg/kg/injection, schedule: Q01DX009 (ip), vehicle: saline

Measured: T/C

COc1ccc(C(=O)CC(c2ccc(OC)c(OC)c2)c2c(O)c3ccccc3oc2=O)cc1OC (centres undefined)
inactive: dose: 12.5 mg/kg/injection, schedule: Q01DX009 (ip), vehicle: saline 101 % of control | dose: 25.0 mg/kg/injection, schedule: Q01DX009 (ip), vehicle: saline 111 % of control | [1] 101 % of control | [2] 109 % of control | [3] 93 % of control

O=C1c2ccccc2C(=O)N1CC/C=C/c1ccc([N+](=O)[O-])cc1Cl
inactive: [4] 100 % of control | [5] 100 % of control | [6] 100 % of control

C=C(C(N)=O)c1cc(Cl)ccc1Cl
inactive: dose: 100.0 mg/kg/injection, schedule: Q01DX009 (ip), vehicle: water 110 % of control | [4] 100 % of control | dose: 200.0 mg/kg/injection, schedule: Q01DX009 (ip), vehicle: water 100 % of control | [5] 95 % of control | dose: 400.0 mg/kg/injection, schedule: Q01DX009 (ip), vehicle: water 100 % of control | [6] 95 % of control

CCC(CN(C)C)C(=O)c1ccccc1 (centres undefined)
inactive: [7] 100 % of control | [8] 95 % of control | [9] 100 % of control | [4] 91 % of control and 95 % of control | [10] 100 % of control

O=C(O)c1ccccc1NC(=O)C(F)(F)F
inactive: dose: 25.0 mg/kg/injection, schedule: Q04DX003 (ip), vehicle: saline sonified 91 % of control | dose: 50.0 mg/kg/injection, schedule: Q04DX003 (ip), vehicle: saline sonified 91 % of control | dose: 100.0 mg/kg/injection, schedule: Q04DX003 (ip), vehicle: saline sonified 91 % of control

NC(N)=N/N=C/c1ccc(Cl)c(Cl)c1
inactive: dose: 6.25 mg/kg/injection, schedule: Q01DX009 (ip), vehicle: Klucel (hydroxypropylcellulose) (HPC) 102 % of control | dose: 12.5 mg/kg/injection, schedule: Q01DX009 (ip), vehicle: Klucel (hydroxypropylcellulose) (HPC) 100 % of control | [11] 94 % of control | [12] 100 % of control

CC1(C)COC(c2ccccc2)=N1
inactive: [13] 100 % of control | [14] 100 % of control | [15] 110 % of control

CCCCN(C(C)(C)C(SSSC(c1ccc(Cl)cc1)C(C)(C)N(CCCC)S(C)(=O)=O)c1ccc(Cl)cc1)S(C)(=O)=O (centres undefined)
inactive: [7] 100 % of control | [8] 100 % of control

Cc1ccc(N(N)c2ccc(C)cc2)cc1
inactive: [12] 100 % of control | dose: 50.0 mg/kg/injection, schedule: Q04DX003 (ip), vehicle: Klucel (hydroxypropylcellulose) (HPC) 107 % of control | [16] 118 % of control | [17] 107 % of control | [18] 113 % of control | [19] 100 % of control

Cc1ccc(S(=O)(=O)N(C)c2ccccc2C(=O)O)cc1
inactive: [13] 100 % of control | [14] 95 % of control | [15] 100 % of control

CCOC(=O)C(C#N)C(C)CC (centres undefined)
inactive: [11] 90 % of control | [12] 104 % of control | [16] 100 % of control | [17] 87 % of control | [18] 95 % of control | [19] 104 % of control | dose: 400.0 mg/kg/injection, schedule: Q01DX009 (ip), vehicle: Klucel (hydroxypropylcellulose) (HPC) 90 % of control | dose: 400.0 mg/kg/injection, schedule: Q04DX003 (ip), vehicle: Klucel (hydroxypropylcellulose) (HPC) 95 % of control

O=C(c1ccncc1)c1c(Cc2ccccc2)ccc2ccccc12
inactive: [20] 92 % of control | [21] 96 % of control | [22] 90 % of control | [23] 92 % of control

N#CCCN(C(=O)Nc1ccc(Cl)c(Cl)c1)C1CCCCC1
inactive: [20] 124 % of control | [21] 104 % of control | [22] 94 % of control | [23] 97 % of control

C=CCc1cn(C2CC(O)C(CO)O2)c(=O)[nH]c1=O (centres undefined)
inactive: [2] 116 % of control | [3] 108 % of control | [24] 116 % of control

CCOC1=NCCCCC1
inactive: [1] 98 % of control | [2] 95 % of control | [3] 98 % of control | [24] 98 % of control

Nc1cccc(/C=C/c2ccnc3ccccc23)c1
inactive: dose: 25.0 mg/kg/injection, schedule: Q01DX001 (ip), vehicle: saline with Tween-80 97 % of control | dose: 50.0 mg/kg/injection, schedule: Q01DX001 (ip), vehicle: saline with Tween-80 97 % of control | [9] 93 % of control and 110 % of control | [10] 119 % of control | dose: 400.0 mg/kg/injection, schedule: Q01DX001 (ip), vehicle: saline with Tween-80 102 % of control

Cn1cc(/C=C/C(N)=O)c2nccnc21
inactive: dose: 1.56 mg/kg/injection, schedule: Q01DX009 (ip), vehicle: water 114 % of control | dose: 3.12 mg/kg/injection, schedule: Q01DX009 (ip), vehicle: water 100 % of control | dose: 3.12 mg/kg/injection, schedule: Q04DX003 (ip), vehicle: water 115 % of control | dose: 6.25 mg/kg/injection, schedule: Q01DX009 (ip), vehicle: water 95 % of control | dose: 6.25 mg/kg/injection, schedule: Q04DX003 (ip), vehicle: water 106 % of control | dose: 12.5 mg/kg/injection, schedule: Q01DX009 (ip), vehicle: water 96 % of control | dose: 12.5 mg/kg/injection, schedule: Q04DX003 (ip), vehicle: water 98 % of control | dose: 25.0 mg/kg/injection, schedule: Q01DX009 (ip), vehicle: water 100 % of control and 102 % of control | dose: 25.0 mg/kg/injection, schedule: Q04DX003 (ip), vehicle: water 98 % of control | dose: 50.0 mg/kg/injection, schedule: Q01DX009 (ip), vehicle: water 86 % of control | dose: 50.0 mg/kg/injection, schedule: Q04DX003 (ip), vehicle: water 102 % of control

CC(=O)Nc1ccn(CC(=O)c2ccco2)c(=O)n1
inactive: [21] 104 % of control | [4] 105 % of control | [22] 95 % of control | [5] 105 % of control | [23] 90 % of control | [6] 100 % of control

Br[CH2][Sn]([Br])([Br])[CH2]Br
inactive: dose: 3.12 mg/kg/injection, schedule: Q01DX009 (ip), vehicle: saline with Tween-80 111 % of control | dose: 6.25 mg/kg/injection, schedule: Q01DX009 (ip), vehicle: saline with Tween-80 98 % of control | dose: 12.5 mg/kg/injection, schedule: Q01DX009 (ip), vehicle: saline with Tween-80 115 % of control

Cc1ncc2c[n+]([O-])ccn12
inactive: dose: 50.0 mg/kg/injection, schedule: Q04DX003 (ip), vehicle: saline 100 % of control | dose: 100.0 mg/kg/injection, schedule: Q04DX003 (ip), vehicle: saline 100 % of control | dose: 200.0 mg/kg/injection, schedule: Q04DX003 (ip), vehicle: saline 90 % of control

COc1cc2cc(c1Cl)N(C)C(=O)C[C@H](OC(=O)CBr)[C@]1(C)O[C@@H]1[C@H](C)[C@@H]1C[C@@](O)(NC(=O)O1)[C@H](OC)C=C/C=C(\C)C2
232 % of control and 120 % of control: dose: 100.0 micrograms/kg/injection, schedule: Q01DX009 (ip), vehicle: saline + alcohol
active: dose: 0.8 micrograms/kg/injection, schedule: Q01DX009 (ip), vehicle: saline + alcohol 153 % of control | dose: 1.5 micrograms/kg/injection, schedule: Q01DX009 (ip), vehicle: saline + alcohol 170 % of control | dose: 3.1 micrograms/kg/injection, schedule: Q01DX009 (ip), vehicle: saline + alcohol 180 % of control | dose: 6.2 micrograms/kg/injection, schedule: Q01DX009 (ip), vehicle: saline + alcohol 183 % of control | dose: 12.5 micrograms/kg/injection, schedule: Q01DX009 (ip), vehicle: saline + alcohol 153 % of control and 200 % of control | dose: 25.0 micrograms/kg/injection, schedule: Q01DX009 (ip), vehicle: saline + alcohol 162 % of control and 210 % of control | dose: 50.0 micrograms/kg/injection, schedule: Q01DX009 (ip), vehicle: saline + alcohol 189 % of control and 210 % of control
